Measured values reported in ChEMBL document CHEMBL2028040, “Malaria Box”.

Experiments:
[1] = test system: Plasmodium falciparum; test: MMV: Inhibition of Plasmodium falciparum 3D7 at 5uM compound concentration.; type: functional
[2] = test system: Plasmodium falciparum; test: MMV: Inhibition of Plasmodium falciparum 3D7 (EC50).; type: functional, organism-based
[3] = test system: Trypanosoma cruzi; test: MMV: Inhibition of Trypanosoma cruzi (Tulahuen C4 LacZ) (Chagas in vitro).; type: functional, organism-based
[4] = test system: Trypanosoma brucei brucei; test: MMV: Inhibition of Trypanosoma brucei brucei (Squib 427) (HAT in vitro).; type: functional, organism-based
[5] = test system: Trypanosoma brucei rhodesiense; test: MMV: Inhibition of Trypanosoma brucei rhodesiense (STIB 900) (HAT in vitro).; type: functional, organism-based
[6] = test system: Leishmania infantum; test: MMV: Inhibition of Leishmania infantum (MHOM/MA/BE/67) in vitro.; type: functional, organism-based
[7] = MMV: Cytotoxicity against human fibroblasts (MRC-5) cells.; settings: MRC-5 cells (human fibroblasts)

EC50 [2] [µM]	IC50 [3] [µM]	IC50 [4] [µM]	IC50 [5] [µM]	IC50 [6] [µM]	SMILES	inhibition at 5 µM [1] [%]	IC50 [7] [µM]
1.11	> 32	16.1	8.44	> 32	CCCn1c(=N)c(C(=O)NC2CCCCC2)cc2c(=O)n3cccc(C)c3nc21	96	> 32
0.995	> 32	> 32	27.4	> 32	O=c1nc(C=Cc2ccc(Cl)cc2)oc2ccccc12	76	> 32
0.532	18.6	14.7	9.88	21.5	COc1ccc(Nc2nc(N/N=C/c3ccc(O)cc3)nc(Nc3ccc([N+](=O)[O-])cc3)n2)cc1	98	> 32
1.01	> 32	14	3.83	> 32	O=C(NC1CCN(Cc2ccccc2)CC1)c1cc(-c2cccnc2)nc2ccc(Cl)cc12	91	> 32
1.29	> 32	> 32	> 32	> 32	C=CCc1c(C)nc2ccccc2c1O	85	> 32
1.32	14.9	16.1	16.1	> 32	CCOc1ccccc1CNC(=O)C1c2ccccc2C(=O)N(CC(C)C)C1c1cccs1 (stereo not given)	97	> 32
0.538	13.6	> 32	16.3	19	CCCCc1ccc(NS(=O)(=O)c2cc3c4c(c2)CCN4C(=O)CC3)cc1	96	5.61
0.345	> 32	> 32	18.3	> 32	Fc1ccc2[nH]c3c(NCCCN4CCOCC4)ncnc3c2c1	98	> 32
1.79	> 32	> 32	> 32	> 32	CC(=O)NCCc1nc2ccccc2n1Cc1ccc(C(C)C)cc1	97	> 32
1.24	> 32	4.28	3.83	> 32	COc1ccc2c(c1OC)C(=O)N1c3ccccc3N=C(c3ccc(C)cc3)CC21 (stereo not given)	93	> 32
0.106	> 32	> 32	> 32	18.4	CCCCCCOC(=O)C1=C(C)NC(=O)NC1c1ccccc1F (stereo not given)	95	> 32
0.381	13.4	14.5	16	> 32	CC1=C(CC(=O)c2cccc([N+](=O)[O-])c2)C(=O)c2ccccc2C1=O	95	> 32
1.31	4.56	4.09	1.19	4.32	Cc1ccc2cc3c(N)c4c(C)ccc(C)c4nc3nc2c1	98	11.4
0.415	> 32	> 32	7.17	> 32	O=C1c2ccccc2C2=Nc3ccccc3SC(c3cccc(F)c3)C12 (stereo not given)	94	> 32
1.43	27.5	> 32	14.6	16	CCCN(CCC)CCCNC(=O)c1cc2c(-c3ccc(OC)c(OC)c3)nn(C)c2s1	98	> 32
1.06	> 32	> 32	> 32	> 32	COc1ccc(C(=O)C2CC2c2ccc(Cl)cc2)cc1 (stereo not given)	94	> 32
1.19	16.3	16.2	16.2	> 32	COCCN(C(=O)Cc1cccs1)C(C(=O)NCc1ccc(OC)cc1)c1ccc(C(C)C)cc1 (stereo not given)	92	27
1.07	> 32	14.6	9.69	> 32	O=C(Nc1ccc(N2CCN(Cc3ccccc3)CC2)cc1)c1cccs1	59	> 32
1	> 32	> 32	> 32	> 32	CCn1c(SCC(=O)Nc2cc(C(F)(F)F)ccc2Cl)nc2ccccc2c1=O	91	> 32
0.939	> 32	> 32	> 32	> 32	O=C(NCc1ccco1)C1CCN(S(=O)(=O)c2ccc(Br)cc2)CC1	93	> 32
0.947	> 32	> 32	> 32	25.4	Cc1ccc(Cn2c(N3CCC(C(=O)NCc4cccs4)CC3)nc3ccccc32)cc1	73	> 32
0.242	0.415	21	16.2	> 32	CCCc1c(CC)c(=N)c2ccccc2n1C	69	30.6

More lines, now with the values behind:

SMILES	EC50 [2] [µM]	IC50 [3] [µM]	IC50 [4] [µM]	IC50 [5] [µM]	IC50 [6] [µM]	inhibition at 5 µM [1] [%]	IC50 [7] [µM]
O=C(NCc1ccco1)C1CCN(S(=O)(=O)c2ccc(Cl)cc2)CC1	0.891	> 32	> 32	28.9	> 32	94	> 32
CCOc1ccc(C2N(C)c3ccccc3N2C)cc1	0.941	3.1	> 32	> 32	25.4	72	15.5
O=C(Nc1ccc(-c2nc3ccccc3[nH]2)cc1)c1ccc(Cl)c(Cl)c1	0.838	> 32	> 32	> 32	> 32	97	> 32
Cc1ccc(Cl)cc1N1CCN(CCCNC(=O)C2CCN(c3nc4ccccc4[nH]3)CC2)CC1	1.33	3.74	1.31	1.01	4	97	14.5
O=C(NC1CCN(Cc2ccccc2)CC1)c1cc(-c2ccncc2)nc2ccc(Cl)cc12	1.02	4.59	4.03	3.51	16.2	92	> 32
COc1cccc(-c2nn(C)c3sc(C(=O)NCCN4CCN(c5ccccc5F)CC4)cc23)c1	1.3	> 32	16	5.31	> 32	91	> 32
CCCc1c(C)nc2ccc(Br)cc2c1O	1.19	> 32	> 32	> 32	> 32	64	> 32
O=C(Nc1ccc(CN2CCOCC2)cc1)c1ccc(-c2ccc(Br)cc2)o1	1.36	11	3.61	3.86	18.4	96	4.81
COc1ccc2nc(C)cc(Nc3cccc(O)c3)c2c1	0.969	15	4.41	5.08	16	98	> 32
Cc1[nH]c(-c2ccc(F)cc2)cc1C(=O)NC1CCN(Cc2ccccc2)CC1	0.771	> 32	6.26	4.03	> 32	99	> 32
COc1ccc(-c2nc3cc(Cc4ccc5[nH]c(-c6ccc(OC)cc6)nc5c4)ccc3[nH]2)cc1	0.176	< 0.125	0.179	< 0.125	4.06	98	4.76
O=C(NC1CCCCC1)C(c1cccs1)N(CCc1ccccc1)C(=O)c1ccco1 (stereo not given)	1.07	> 32	> 32	19.2	> 32	90	> 32
Cc1cc(NC(=O)c2ccc(-c3ccccc3)cc2)no1	0.693	> 32	> 32	> 32	> 32	95	> 32
O=C(Cc1ccccc1)NC(c1ccc(Cl)cc1)c1c(O)ccc2ccccc12 (stereo not given)	1.14	3.65	4.06	3.7	4.76	97	8.22
Nc1ccc(-c2nc3cc(Oc4ccc(Oc5ccc6[nH]c(-c7ccc(N)cc7)nc6c5)cc4)ccc3[nH]2)cc1	0.842	3.91	1.94	2.74	4.06	97	8
CCOc1ccc(-n2cc(-c3ccccc3)c3c(SCc4cc(C)ccc4C)ncnc32)cc1	1.71	> 32	> 32	25	> 32	97	> 32
COc1ccc(CCNC(=O)c2cc(S(=O)(=O)N3CC(C)CC(C)C3)ccc2Sc2ccc(F)cc2)cc1OC (stereo not given)	0.632	> 32	> 32	> 32	> 32	97	> 32
Cc1ccccc1OCCSc1nc2ccc(NC(=O)c3ccccc3)cc2s1	1.12	> 32	> 32	> 32	> 32	93	> 32
